| melting point [°C] | Structure (SMILES) |
| --- | --- |
| 210 to 212 | O=c1c2ccccc2nc(-c2sc(Nc3ccccc3)nc2-c2ccccc2)n1-c1ccccc1Cl |
| 207 to 208 | Clc1ccc(N2CCN(Cc3n[nH]c4c3CCc3ccccc3-4)CC2)nc1 |
| 260 to 262 | O=C(O)c1cc(-n2c(-c3ccccc3)cc3c2CCc2ccccc2-3)ccc1S |
| 104 | CC(C)(C)C1c2ccccc2CCC1O (stereo not drawn) |
| 282 | N#Cc1c(N2CCN(C(=O)c3cccs3)CC2)c2cscc2n(-c2cccnc2)c1=O |
| 174 | CCOC(=O)c1cccc(NC(=O)NCC(=O)O)c1 |
| 95 to 96 | COc1cc(OC)cc(N2CCN(C(=O)Nc3cc(-c4cccnc4)nc4ccccc34)CC2)c1 |

| Structure (SMILES) | melting point [°C] |
| --- | --- |
| O=c1[nH]c2cc(Cl)ccc2c(=O)n1-c1ccccc1 | > 300 |

— a melting point compilation (Tetko et al.; mined from patent text by program, amines drawn as free bases though some values may be those of a salt)
